Reference: patent publication US20250361230A1, “LATS Inhibitors and Uses Thereof” (The USA, as Represented by the Secretary, Dept. of Heath …, priority 2022, published 2025)

Target: T1, AKT Kinase-NanoLuc fusion in HEK-293 cells (Homo sapiens, UniProt P31749)
T1 construct: host or cells: HEK-293
Test: NanoBRET target engagement assay in transfected HEK-293 cells, AKT
Format: cell-based
Conditions: Table 28, NanoBRET, HEK-293 cells; read-out: AKT1 (Cellular) IC50
Text: The NanoBRET™ assay measures kinase engagement in real time in the context of the intact cell. The assay uses a Kinase-NanoLuc® fusion vector expressing a kinase protein to which a luciferase tag has been added, a cell-permeant fluorescent NanoBRET™ tracer, a NanoLuc® substrate, and an extracellular NanoLuc® inhibitor. Upon expression of the luciferase-tagged kinase, cells will produce a strong BRET signal only in the presence of the NanoBRET™ tracer. The extracellular NanoLuc® inhibitor ensures that the BRET signal observed emanates only from live cells. Because the BRET signal has tight distance constraints, addition of the test compound will decrease the BRET signal if the compound competes with the NanoBRET™ tracer for binding to the kinase domain. Under the appropriate tracer conditions established by the manufacturer, quantitative intracellular affinity and relative potency can then be determined using Mass Action model equations.
HEK-293 cells were purchased from ATCC. FuGENEHD Transfection Reagent, Kinase-NanoLuc® fusion plasmids, Transfection Carrier DNA, NanoBRET™ Tracers and dilution buffer, NanoBRET™ Nano-Glo Substrate, Extracellular NanoLuc® Inhibitor were obtained from Promega.
Assays were conducted following Promega assay protocol with some modifications as described further below. HEK-293 Cells were transiently transfected with Kinase-NanoLuc® Fusion Vector DNA by FuGENE HD Transfection Reagent. Test compounds were delivered into 384 well assay plate by Echo 550 (Labcyte Inc, Sunnyvale, CA). Transfected cells were harvested and mixed with NanoBRET™ Tracer Reagent and dispensed into 384 well plates and incubated at 37° C. in 5% CO2 cell culture incubator for 1 hour. The NanoBRET™ Nano-Glo Substrate plus Extracellular NanoLuc® Inhibitor Solution were added into the wells of the assay plate and incubated for 2-3 minutes at room temperature. The donor emission wavelength (460 nm) and acceptor emission wavelength (600 nm) were measured in the EnVision plate reader. The BRET Ratios were calculated. BRET Ratio=[(Acceptor sample÷Donor sample)−(Acceptor no-tracer control÷Donor no-tracer control)]. The IC50 values of compounds were calculated with Prism GraphPad program.
• 1. Transient Transfection of HEK-293 Cells NanoLuc® Fusion Vector DNA • 1). Cultivate HEK-293 cells (70-80% confluence) appropriately prior to assay. Trypsinize and collect HEK-293 cells. • 2). Prepare lipid: DNA complexes as follows: • a. Prepare a […] solution of DNA in Opti-MEM™ without serum that consists of the following ratios of carrier DNA and DNA encoding NanoLuc® fusion. 9.0 µg/mL of Transfection Carrier DNA, […] of NanoLuc® fusion vector DNA and 1 mL of Opti-MEM™ without phenol red. Mix thoroughly. • b. Add 30 μl of FuGENE HD Transfection Reagent into each milliliter of DNA mixture to form lipid: DNA complex. • c. Mix by inversion 10 times. • d. Incubate at ambient temperature for 20 minutes to allow complexes to form. • 3). In a sterile, conical tube, mix 1 part of lipid: DNA complex with 20 parts of HEK-293 cells in suspension. Mix gently by inversion 5 times. • 4). Dispense cells+lipid: DNA complex into a sterile tissue culture dish and incubate for 22-24 hours. • 2. Addition of Test Compounds (dry plate shooting): Each test compound is delivered from the compound source plate to the wells of 384-well white NBS plate by Echo 550. • 3. Preparation of Cells with NanoBRET™ Tracer Reagent • 1). Remove medium from dish with transfected HEK-293 cells via aspiration, trypsinize and allow cells to dissociate from the dish. • 2). Neutralize trypsin using medium containing serum and centrifuge at 200× g for 5 minutes to pellet the cells. Adjust the cell density to 2×10^5 cells/mL in Opti-MEM™ without phenol red. • 3). Prepare Complete 20× NanoBRET™ Tracer Reagent with Tracer Dilution Buffer. • 4). Dispense one part of Complete 20× NanoBRET™ Tracer Reagent to 20 parts of cells in the tube. Mix gently by inversion 10 times. • 5). […]

T1 sequence (P31749 whole entry, the tested form may be a part): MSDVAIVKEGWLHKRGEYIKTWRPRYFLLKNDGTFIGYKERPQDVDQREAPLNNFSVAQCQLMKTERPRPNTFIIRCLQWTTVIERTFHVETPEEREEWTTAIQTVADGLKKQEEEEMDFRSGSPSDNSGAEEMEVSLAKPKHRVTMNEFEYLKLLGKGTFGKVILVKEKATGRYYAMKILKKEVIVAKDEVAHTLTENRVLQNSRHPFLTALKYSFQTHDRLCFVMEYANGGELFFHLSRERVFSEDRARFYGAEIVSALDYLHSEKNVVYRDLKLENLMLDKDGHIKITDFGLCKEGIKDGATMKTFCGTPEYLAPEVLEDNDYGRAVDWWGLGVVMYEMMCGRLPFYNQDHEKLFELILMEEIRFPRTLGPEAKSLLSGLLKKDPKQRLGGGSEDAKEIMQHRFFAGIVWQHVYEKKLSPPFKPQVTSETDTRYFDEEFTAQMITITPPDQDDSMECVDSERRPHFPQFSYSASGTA

With `C[C@@H]1CN(C)C[C@H](C)[C@@]1(O)c1ccc(-c2ccnc3[nH]cc(F)c23)cc1` [Compound 39, (3R,4s,5S)-4-(4-(3-fluoro-1H-pyrrolo[2,3-b]pyridin-4-yl)phenyl)-1,3,5-trimethylpiperidin-4-ol] as the compound, how does the IC50 read?
The IC50 was over 50 µM.

With `Cc1cc(-c2ccnc3[nH]cc(F)c23)cc(F)c1[C@@]1(O)[C@H](C)CN(C(=O)[C@@H](CO)N(C)C)C[C@@H]1C` [Compound 313, (R)-2-(dimethylamino)-1-((3S,4S,5R)-4-(2-fluoro-4-(3-fluoro-1H-pyrrolo[2,3-b]pyridin-4-yl)-6-methylphenyl)-4-hydroxy-3,5-dimethylpiperidin-1-yl)-3-hydroxypropan-1-one] as the compound, how does the IC50 read?
Its IC50 is 19.2 µM.

Which IC50 does the source give for `Cc1cc(-c2ccnc3[nH]cc(F)c23)cc(F)c1C1(O)CC2(CN(C3COC3)C2)C1` [Compound 139, 6-(2-fluoro-4-(3-fluoro-1H-pyrrolo[2,3-b]pyridin-4-yl)-6-methylphenyl)-2-(oxetan-3-yl)-2-azaspiro[3.3]heptan-6-ol] here?
The IC50 was over 30 µM.

`C[C@@H]1CN(C)C[C@H](C)[C@@]1(O)c1cnc(-c2ccnc3[nH]cc(F)c23)cc1Cl` [Compound 22, (3S,4s,5R)-4-(4-chloro-6-(3-fluoro-1H-pyrrolo[2,3-b]pyridin-4-yl)pyridin-3-yl)-1,3,5-trimethylpiperidin-4-ol] was tested. Which IC50 did it give?
Its IC50 is 2.51 µM.

How did the IC50 turn out when `Cc1cc(-c2ccnc3[nH]cc(F)c23)ccc1[C@@]1(O)[C@H](C)CN(C2CCS(=O)(=O)CC2)C[C@@H]1C` [Compound 55, 4-((3R,4s, 5S)-4-(4-(3-fluoro-1H-pyrrolo[2,3-b]pyridin-4-yl)-2-methylphenyl)-4-hydroxy-3,5S-dimethylpiperidin-1-yl)tetrahydro-2H-thiopyran 1,1-dioxide] was run?
Its IC50 is 19.8 µM.

For `COC(=O)c1c[nH]c2nccc(-c3cc(C)c([C@@]4(O)[C@H](C)CN(C(=O)CN)C[C@@H]4C)c(F)c3)c12` [Compound 310, methyl 4-(3-fluoro-4-((3S,4s,5R)-1-glycyl-4-hydroxy-3,5-dimethylpiperidin-4-yl)-5-methylphenyl)-1H-pyrrolo[2,3-b]pyridine-3-carboxylate], which IC50 is on record?
Its IC50 is 49.4 µM.

Which IC50 does the source give for `C[C@@H]1CN(C(=O)CN)C[C@H](C)[C@@]1(O)c1c(F)cc(-c2ccnc3[nH]cc(F)c23)cc1F` [Compound 58] here?
Its IC50 is 18.2 µM.

Which IC50 does the source give for `CC1CC(c2ccc(-c3ccnc4[nH]ccc34)cc2)CC(C)N1` (stereo not shown) [Compound 187, 4-(4-(2,6-dimethylpiperidin-4-yl)phenyl)-1H-pyrrolo[2,3-b]pyridine] here?
Its IC50 is over 50 µM.

`C[C@@H]1CNC[C@H](C)[C@@]1(O)c1ccc(-c2ccnc3[nH]cc(F)c23)cc1Cl` [Compound 1, (3S,4S,5R)-4-(2-chloro-4-(3-fluoro-1H-pyrrolo[2,3-b]pyridin-4-yl)phenyl)-3,5-dimethylpiperidin-4-ol] was tested. Which IC50 did it give?
The IC50 was 21.2 µM.

For `Cc1cc(-c2ccnc3[nH]cc(F)c23)cc(F)c1[C@@]1(O)[C@H](C)CN(C(=O)CN)C[C@@H]1C` [Compound 61, 2-amino-1-((3R,4s,5S)-4-(2-fluoro-4-(3-fluoro-1H-pyrrolo[2,3-b]pyridin-4-yl)-6-methylphenyl)-4-hydroxy-3,5-dimethylpiperidin-1-yl)ethan-1-one], which IC50 is on record?
The IC50 was 3.44 µM.

For `Cc1cc(-c2ccnc3[nH]ccc23)ccc1CN` [Compound 266, (2-methyl-4-(1H-pyrrolo[2,3-b]pyridin-4-yl)phenyl) methanamine], which IC50 is on record?
The IC50 was over 50 µM.

`Cc1cc(-c2ccnc3[nH]cc(Cl)c23)ccc1CN` [Compound 254, (4-(3-chloro-1H-pyrrolo[2,3-b]pyridin-4-yl)-2-methylphenyl) methanamine] was tested. Which IC50 did it give?
Its IC50 is 3.91 µM.

Which IC50 does the source give for `NCc1ccc(-c2ccnc3[nH]cc(-c4cccnc4)c23)cc1` [Compound 245, (4-(3-(pyridin-3-yl)-1H-pyrrolo[2,3-b]pyridin-4-yl)phenyl) methanamine] here?
Its IC50 is 3.45 µM.

How did the IC50 turn out when `NCc1ccc(-c2ccnc3[nH]cc(F)c23)cc1` [Compound 275, (4-(3-fluoro-1H-pyrrolo[2,3-b]pyridin-4-yl)phenyl) methanamine] was run?
Its IC50 is 2.06 µM.

For `Cc1cc(-c2ccnc3[nH]cc(F)c23)cc(F)c1[C@@]1(O)[C@H](C)CN(C)C[C@@H]1C` [Compound 304, (3S,4s,5R)-4-(2-fluoro-4-(3-fluoro-1H-pyrrolo[2,3-b]pyridin-4-yl)-6-methylphenyl)-1,3,5-trimethylpiperidin-4-ol], which IC50 is on record?
Its IC50 is 26 µM.

Which IC50 does the source give for `c1cc(-c2ccc(C3CC4CCC(C3)N4)cc2)c2cc[nH]c2n1` (stereo not shown) [Compound 184, 4-(4-(8-azabicyclo[3.2.1]octan-3-yl)phenyl)-1H-pyrrolo[2,3-b]pyridine] here?
Its IC50 is 27.4 µM.

Which IC50 does the source give for `Cc1cc(-c2ccnc3[nH]cc(F)c23)cc(F)c1[C@@]1(O)[C@H](C)CN(C(C)C)C[C@@H]1C` [Compound 305, (3S,4s,5R)-4-(2-fluoro-4-(3-fluoro-1H-pyrrolo[2,3-b]pyridin-4-yl)-6-methylphenyl)-1-isopropyl-3,5-dimethylpiperidin-4-ol] here?
The IC50 was 29.4 µM.

With `Cc1cc(-c2ccnc3[nH]cc(F)c23)ccc1[C@@]1(O)[C@H](C)CN(C2COC2)C[C@@H]1C` [Compound 24, (3S,4s,5R)-4-(4-(3-fluoro-1H-pyrrolo[2,3-b]pyridin-4-yl)-2-methylphenyl)-3,5-dimethyl-1-(oxetan-3-yl)piperidin-4-ol] as the compound, how does the IC50 read?
The IC50 was 56.2 µM.

Same assay, conditions: Table 32, NanoBRET, HEK-293 cells; read-out: AKT (Cellular) IC50

How did the IC50 turn out when `NCC(O)(c1ccc(Cl)cc1)c1ccc(-c2ccnc3[nH]cc(F)c23)cc1` (stereo not shown) [Compound 1002, 2-amino-1-(4-chlorophenyl)-1-(4-(3-fluoro-1H-pyrrolo[2,3-b]pyridin-4-yl)phenyl)ethan-1-ol] was run?
The IC50 was 0.027 µM.

How did the IC50 turn out when `NCC(=O)NCC(O)(c1ccc(Cl)cc1)c1ccc(-c2ccnc3[nH]cc(Cl)c23)cc1` (stereo not shown) [Compound 1021, 2-amino-N-(2-(4-(3-chloro-1H-pyrrolo[2,3-b]pyridin-4-yl)phenyl)-2-(4-chlorophenyl)-2-hydroxyethyl) acetamide] was run?
The IC50 was 0.012 µM.

Which IC50 does the source give for `COC(=O)c1c[nH]c2nccc(-c3ccc(C(O)(CN)c4ccc(Cl)cc4)cc3)c12` (stereo not shown) [Compound 1004, Methyl 4-(4-(2-amino-1-(4-chlorophenyl)-1-hydroxyethyl)phenyl)-1H-pyrrolo[2,3-b]pyridine-3-carboxylate] here?
The IC50 was 0.548 µM.

`NCC(O)(c1ccc(Cl)cc1)c1ccc(-c2ccnc3[nH]cc(-c4cccnc4)c23)cc1` (stereo not shown) [Compound 1007, 2-amino-1-(4-chlorophenyl)-1-(4-(3-(pyridin-3-yl)-1H-pyrrolo[2,3-b]pyridin-4-yl)phenyl)ethan-1-ol] was tested. Which IC50 did it give?
Its IC50 is 0.153 µM.

Same assay, conditions: cellular; read-out: AKT (Cellular) IC50

For `Cc1cc(-c2ccnc3[nH]cc(C#N)c23)cc(F)c1[C@@]1(O)[C@H](C)CN(C(=O)[C@H](CO)N(C)C)C[C@@H]1C` [Compound 2023, 4-(4-((3S,4R,5R)-1-(dimethyl-L-seryl)-4-hydroxy-3,5-dimethylpiperidin-4-yl)-3-fluoro-5-methylphenyl)-1H-pyrrolo[2,3-b]pyridine-3-carbonitrile], which IC50 is on record?
Its IC50 is over 50 µM.

How did the IC50 turn out when `Cc1cc(-c2ccnc3[nH]cc(C#N)c23)cc(F)c1[C@@]1(O)[C@H](C)CN(C(=O)CN)C[C@@H]1C` [Compound 2004, 4-(3-fluoro-4-((3S,4s,5R)-1-glycyl-4-hydroxy-3,5-dimethylpiperidin-4-yl)-5-methylphenyl)-1H-pyrrolo[2,3-b]pyridine-3-carbonitrile] was run?
The IC50 was 51.7 µM.

`Cc1cc(-c2ccnc3[nH]cc(C#N)c23)ccc1[C@@]1(O)[C@H](C)CN(C(=O)CN)C[C@@H]1C` [Compound 2005, 4-(4-((3S,4s,5R)-1-glycyl-4-hydroxy-3,5-dimethylpiperidin-4-yl)-3-methylphenyl)-1H-pyrrolo[2,3-b]pyridine-3-carbonitrile] was tested. Which IC50 did it give?
The IC50 was 56.8 µM.
